Data: US20050053591A1, “Compositions and uses of motor protein-binding moieties” (Insert Therapeutics, Inc., priority 2002, published 2005)

How the values were obtained:
[1] = target: FKBPs with a single amino acid substitution, Phe36Val (FV) (Homo sapiens, UniProt P62942, F37V); settings: FKBP Phe36Val (FV); cited from earlier work
wild-type FKBP = wild-type FKBP (Homo sapiens, UniProt P62942); settings: wild-type FKBP versus FV; cited from earlier work
PC3 cells = experiment: Dynein-mediated transport to the nuclear surface in cultured cells (fluorescence microscopy, FIG. 1); assay type: cell-based; settings: rhodamine-labeled GFP plasmid conjugated to peptide, formulated with CD-IPEI at 5+/-, 1 μg plasmid, 5 hours exposure
Experimental: PC3 cells were plated at 100,000 cells/mL in 6-well plates containing a clean glass coverslip at the bottom of each well one day before transfection. For transfection, 1 μg of plasmid was mixed with a linear, cyclodextrin polycation (CD-IPEI) at 5+/− and mixed with cells in 1 mL of Opti-MEM. Transfection solution was removed 5 hours after exposure and replaced with complete media. Cells were washed with PBS, fixed with formalin (0.5 mL for 10 minutes), and washed 3 times with PBS. The coverslips were then removed from the wells and mounted on glass slides with Prolong Antifade (Molecular Probes, Eugene, Oreg.).

DLC8 = DLC8 (Homo sapiens, UniProt P63167); settings: nine-residue peptide from the Bim protein (Lo et al.); cited from earlier work
DLC8, sequence (P63167 whole entry, species assumed): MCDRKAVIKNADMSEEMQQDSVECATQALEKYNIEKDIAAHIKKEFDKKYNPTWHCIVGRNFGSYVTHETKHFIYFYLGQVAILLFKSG

wild-type FKBP, sequence (P62942 whole entry): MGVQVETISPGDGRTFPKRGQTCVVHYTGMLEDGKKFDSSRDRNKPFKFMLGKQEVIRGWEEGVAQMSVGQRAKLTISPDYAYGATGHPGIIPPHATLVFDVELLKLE
FKBPs with a single amino acid substitution, Phe36Val (FV), sequence (P62942 whole entry F37V): as the sequence (P62942 whole entry) above, with F37V counted along it

Compound	binding affinity [1]	lower affinity to the wild-type protein relative to Phe36Val FKBP (wild-type FKBP)	transport of plasmid DNA toward the nucleus (PC3 cells)	DLC8 binding (DLC8)
CC[C@H](C(=O)N1CCCC[C@H]1C(=O)O[C@H](CCc1ccc(OC)c(OC)c1)c1cccc(OCC(=O)NCCNC(=O)COc2cccc([C@@H](CCc3ccc(OC)c(OC)c3)OC(=O)[C@@H]3CCCCN3C(=O)[C@@H](CC)c3cc(OC)c(OC)c(OC)c3)c2)c1)c1cc(OC)c(OC)c(OC)c1 [AP1903]	subnanomolar	1000 fold		
CC[C@H](C(=O)N1CCCC[C@H]1C(=O)O[C@H](CCc1ccc(OC)c(OC)c1)c1cccc(OCC(=O)NCC(CNC(=O)COc2cccc([C@@H](CCc3ccc(OC)c(OC)c3)OC(=O)[C@@H]3CCCCN3C(=O)[C@@H](CC)c3cc(OC)c(OC)c(OC)c3)c2)CN(C)C)c1)c1cc(OC)c(OC)c(OC)c1 [AP20187]	subnanomolar	1000 fold		
CSYSKETQPL [dynein-binding peptide]			facilitates transport toward the nucleus	
MSCDKSTQT [nine-peptide from the Bim protein]				can bind DLC8
